Source: ChEMBL document CHEMBL5723035, “Affinity Biochemical Literature for EUbOPEN Chemogenomic Library” (2024)
Non-standard residues stand in square brackets, D forms with d. Residues, ends and D or L forms follow the SMILES beside them. *: point of attachment. Benzoyl(4-OPh) = O=C(c1ccc(Oc2ccccc2)cc1)*; Lys(Et2) = CCN(CC)CCCC[C@H](N)C(=O)O; d(aIle) = CC[C@H](C)[C@@H](N)C(=O)O; Gly(cPent) = N[C@H](C(=O)O)C1CCCC1; NH(propargyl) = C#CCN*

What was measured:
Set-up in all cases: mode of action Inhibitor, recommended concentration 1 uM
[1] = molecular target: Bromodomain-containing protein 4 (Homo sapiens, UniProt O60885); experiment: Affinity Biochemical interaction: (TR-FRET) EUB0002661a BRD4; type: functional
[2] = molecular target: Synaptic vesicular amine transporter (Homo sapiens, UniProt Q05940); experiment: Affinity Biochemical interaction: (Inhibition of radiolabelled [3H]dopamine uptake) EUB0002590aCl SLC18A2
Histone deacetylase 1 = Histone deacetylase 1 (Homo sapiens, UniProt Q13547); experiment: Affinity Biochemical interaction: (fluorometric activity assay) EUB0002519a HDAC1; type: functional
Histone deacetylase 2 = Histone deacetylase 2 (Homo sapiens, UniProt Q92769); experiment: Affinity Biochemical interaction: (fluorometric activity assay) EUB0002519a HDAC2; type: functional
[3] = molecular target: T1, Chromobox protein homolog 8 (Homo sapiens, UniProt Q9HC52); experiment: Affinity Biochemical interaction: (Fluorescence polarisation (fluorescein conjugated)) EUB0002326a CBX8; type: functional
T1 sequence (Q9HC52 whole entry): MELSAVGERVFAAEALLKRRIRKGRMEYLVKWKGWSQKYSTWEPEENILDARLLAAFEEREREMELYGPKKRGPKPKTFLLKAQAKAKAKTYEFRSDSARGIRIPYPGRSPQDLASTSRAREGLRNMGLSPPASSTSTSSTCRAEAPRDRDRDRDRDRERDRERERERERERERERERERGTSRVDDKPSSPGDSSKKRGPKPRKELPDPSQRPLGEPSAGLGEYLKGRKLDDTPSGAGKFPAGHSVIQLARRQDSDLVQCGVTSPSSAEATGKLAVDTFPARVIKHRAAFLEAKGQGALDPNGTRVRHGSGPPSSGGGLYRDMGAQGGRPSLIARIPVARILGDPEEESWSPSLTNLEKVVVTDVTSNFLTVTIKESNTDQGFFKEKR

[4] = molecular target: T1, Chromobox protein homolog 8; experiment: Affinity Biochemical interaction: (MST (fluorescein-conjugated)) EUB0002326a CBX8
[5] = molecular target: T1, Chromobox protein homolog 8; experiment: Affinity Biochemical interaction: (Thermal Shift Assay) EUB0002326a CBX8
[6] = molecular target: cGMP-dependent 3',5'-cyclic phosphodiesterase (Homo sapiens, UniProt O00408); experiment: Affinity Biochemical interaction: (inhibition of enzyme activity with [3H]cGMP or [3H]cAMP as the substrate) EUB0002477a PDE2A; type: functional
[7] = molecular target: T2, 3',5'-cyclic-AMP phosphodiesterase 4D (Homo sapiens, UniProt Q08499); experiment: Affinity Biochemical interaction: (inhibition of enzyme activity with [3H]cGMP or [3H]cAMP as the substrate) EUB0002477a PDE4D; type: functional
[8] = molecular target: High affinity 3',5'-cyclic-AMP phosphodiesterase 7A (Homo sapiens, UniProt Q13946); experiment: Affinity Biochemical interaction: (inhibition of enzyme activity with [3H]cGMP or [3H]cAMP as the substrate) EUB0002477a PDE7A; type: functional
[9] = molecular target: High affinity cAMP-specific and IBMX-insensitive 3',5'-cyclic phosphodiesterase 8A (Homo sapiens, UniProt O60658); experiment: Affinity Biochemical interaction: (inhibition of enzyme activity with [3H]cGMP or [3H]cAMP as the substrate) EUB0002477a PDE8A; type: functional
[10] = molecular target: cAMP and cAMP-inhibited cGMP 3',5'-cyclic phosphodiesterase 10A (Homo sapiens, UniProt Q9Y233); experiment: Affinity Biochemical interaction: (inhibition of enzyme activity with [3H]cGMP or [3H]cAMP as the substrate) EUB0002477a PDE10A; type: functional
[11] = molecular target: T3, Nucleotide triphosphate diphosphatase NUDT15 (Homo sapiens, UniProt Q9NV35); experiment: Affinity Biochemical interaction: (enzyme-coupled MG (Malachite Green) assay with […]) EUB0002330a NUDT15; type: functional
[12] = molecular target: T3, Nucleotide triphosphate diphosphatase NUDT15; experiment: Affinity Biochemical interaction: (enzyme-coupled MG (Malachite Green) assay with 6-thio-dGTP) EUB0002330a NUDT15; type: functional
[13] = molecular target: T4, Histone-lysine N-methyltransferase SETD7 (Homo sapiens, UniProt Q8WTS6); experiment: Affinity Biochemical interaction: (inhibition of histone H3(1-21) methylation) EUB0002319a SETD7; type: functional
[14] = molecular target: T4, Histone-lysine N-methyltransferase SETD7; experiment: Affinity Biochemical interaction: (inhibition of histone H3 methylation) EUB0002319a SETD7; type: functional
[15] = molecular target: T5, Protein arginine N-methyltransferase 5 (Homo sapiens, UniProt O14744); experiment: Affinity Biochemical interaction: (inhibition of histone H4 (1-21) methylation) EUB0002319a PRMT5; type: functional
[16] = molecular target: T5, Protein arginine N-methyltransferase 5; experiment: Affinity Biochemical interaction: (inhibition of histone H4 methylation) EUB0002319a PRMT5; type: functional
[17] = molecular target: T6, Breast cancer type 1 susceptibility protein (Homo sapiens, UniProt P38398); experiment: Affinity Biochemical interaction: (Fluorescence polarisation assay) EUB0002518a BRCA1; type: functional
[18] = molecular target: T6, Breast cancer type 1 susceptibility protein; experiment: Affinity Biochemical interaction: (ITC) EUB0002518a BRCA1
[19] = molecular target: Histone acetyltransferase p300 (Homo sapiens, UniProt Q09472); experiment: Affinity Biochemical interaction: (inhibition of acetyl-transferase reaction) EUB0002628aAD EP300; type: functional
[20] = molecular target: sn-1-specific diacylglycerol lipase ABHD11 (Homo sapiens, UniProt Q8NFV4); experiment: Affinity Biochemical interaction: (fluorescence-based biochemical gel-based Activity-Based Protein Profiling (ABPP)) EUB0002643a ABHD11; type: functional
[21] = molecular target: Arginase-2, mitochondrial (Homo sapiens, UniProt P78540); experiment: Affinity Biochemical interaction: (competitive binding assay with radiolabelled [guanido-14C][…] as substrate) EUB0002484aCl ARG2
[22] = molecular target: 3',5'-cyclic-AMP phosphodiesterase 4A (Homo sapiens, UniProt P27815); experiment: Affinity Biochemical interaction: (radioligand binding assay, inhibition of [3H]cAMP or [3H]cGMP cleavage) EUB0002534a PDE4A
[23] = molecular target: 3',5'-cyclic-AMP phosphodiesterase 4B (Homo sapiens, UniProt Q07343); experiment: Affinity Biochemical interaction: (radioligand binding assay, inhibition of [3H]cAMP or [3H]cGMP cleavage) EUB0002534a PDE4B
[24] = molecular target: 3',5'-cyclic-AMP phosphodiesterase 4C (Homo sapiens, UniProt Q08493); experiment: Affinity Biochemical interaction: (radioligand binding assay, inhibition of [3H]cAMP or [3H]cGMP cleavage) EUB0002534a PDE4C
[25] = molecular target: T2, 3',5'-cyclic-AMP phosphodiesterase 4D; experiment: Affinity Biochemical interaction: (radioligand binding assay, inhibition of [3H]cAMP or [3H]cGMP cleavage) EUB0002534a PDE4D
[26] = molecular target: Dual specificity calcium/calmodulin-dependent 3',5'-cyclic nucleotide phosphodiesterase 1A (Homo sapiens, UniProt P54750); experiment: Affinity Biochemical interaction: (inhibition of [3H]cGMP cleavage, scintillation proximity assay) EUB0002562a PDE1A; type: functional
[27] = molecular target: Triacylglycerol hydrolase DDHD2 (Homo sapiens, UniProt O94830); experiment: Affinity Biochemical interaction: (Gel-based competitive activity-based protein profiling with HT-01 probe and membranes) EUB0002612a DDHD2; type: functional, cell membranes

T5 sequence (O14744 whole entry): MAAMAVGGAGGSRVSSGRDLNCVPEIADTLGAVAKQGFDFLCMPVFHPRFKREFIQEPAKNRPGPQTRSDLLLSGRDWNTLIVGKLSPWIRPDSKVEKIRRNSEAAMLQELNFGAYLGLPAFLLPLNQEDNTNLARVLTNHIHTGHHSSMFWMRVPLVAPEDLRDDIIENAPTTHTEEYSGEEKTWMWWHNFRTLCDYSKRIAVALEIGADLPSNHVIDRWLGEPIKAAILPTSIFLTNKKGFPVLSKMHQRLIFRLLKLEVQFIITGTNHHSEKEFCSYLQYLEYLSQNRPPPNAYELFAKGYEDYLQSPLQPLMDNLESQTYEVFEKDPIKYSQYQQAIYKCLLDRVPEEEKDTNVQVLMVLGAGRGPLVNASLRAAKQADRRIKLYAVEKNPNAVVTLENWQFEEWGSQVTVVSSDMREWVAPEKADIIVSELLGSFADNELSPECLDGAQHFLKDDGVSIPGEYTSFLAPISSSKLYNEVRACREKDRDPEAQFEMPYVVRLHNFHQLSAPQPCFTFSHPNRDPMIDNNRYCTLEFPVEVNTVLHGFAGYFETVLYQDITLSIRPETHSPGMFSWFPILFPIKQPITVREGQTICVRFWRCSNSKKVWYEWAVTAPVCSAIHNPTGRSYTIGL
T6 sequence (P38398 whole entry): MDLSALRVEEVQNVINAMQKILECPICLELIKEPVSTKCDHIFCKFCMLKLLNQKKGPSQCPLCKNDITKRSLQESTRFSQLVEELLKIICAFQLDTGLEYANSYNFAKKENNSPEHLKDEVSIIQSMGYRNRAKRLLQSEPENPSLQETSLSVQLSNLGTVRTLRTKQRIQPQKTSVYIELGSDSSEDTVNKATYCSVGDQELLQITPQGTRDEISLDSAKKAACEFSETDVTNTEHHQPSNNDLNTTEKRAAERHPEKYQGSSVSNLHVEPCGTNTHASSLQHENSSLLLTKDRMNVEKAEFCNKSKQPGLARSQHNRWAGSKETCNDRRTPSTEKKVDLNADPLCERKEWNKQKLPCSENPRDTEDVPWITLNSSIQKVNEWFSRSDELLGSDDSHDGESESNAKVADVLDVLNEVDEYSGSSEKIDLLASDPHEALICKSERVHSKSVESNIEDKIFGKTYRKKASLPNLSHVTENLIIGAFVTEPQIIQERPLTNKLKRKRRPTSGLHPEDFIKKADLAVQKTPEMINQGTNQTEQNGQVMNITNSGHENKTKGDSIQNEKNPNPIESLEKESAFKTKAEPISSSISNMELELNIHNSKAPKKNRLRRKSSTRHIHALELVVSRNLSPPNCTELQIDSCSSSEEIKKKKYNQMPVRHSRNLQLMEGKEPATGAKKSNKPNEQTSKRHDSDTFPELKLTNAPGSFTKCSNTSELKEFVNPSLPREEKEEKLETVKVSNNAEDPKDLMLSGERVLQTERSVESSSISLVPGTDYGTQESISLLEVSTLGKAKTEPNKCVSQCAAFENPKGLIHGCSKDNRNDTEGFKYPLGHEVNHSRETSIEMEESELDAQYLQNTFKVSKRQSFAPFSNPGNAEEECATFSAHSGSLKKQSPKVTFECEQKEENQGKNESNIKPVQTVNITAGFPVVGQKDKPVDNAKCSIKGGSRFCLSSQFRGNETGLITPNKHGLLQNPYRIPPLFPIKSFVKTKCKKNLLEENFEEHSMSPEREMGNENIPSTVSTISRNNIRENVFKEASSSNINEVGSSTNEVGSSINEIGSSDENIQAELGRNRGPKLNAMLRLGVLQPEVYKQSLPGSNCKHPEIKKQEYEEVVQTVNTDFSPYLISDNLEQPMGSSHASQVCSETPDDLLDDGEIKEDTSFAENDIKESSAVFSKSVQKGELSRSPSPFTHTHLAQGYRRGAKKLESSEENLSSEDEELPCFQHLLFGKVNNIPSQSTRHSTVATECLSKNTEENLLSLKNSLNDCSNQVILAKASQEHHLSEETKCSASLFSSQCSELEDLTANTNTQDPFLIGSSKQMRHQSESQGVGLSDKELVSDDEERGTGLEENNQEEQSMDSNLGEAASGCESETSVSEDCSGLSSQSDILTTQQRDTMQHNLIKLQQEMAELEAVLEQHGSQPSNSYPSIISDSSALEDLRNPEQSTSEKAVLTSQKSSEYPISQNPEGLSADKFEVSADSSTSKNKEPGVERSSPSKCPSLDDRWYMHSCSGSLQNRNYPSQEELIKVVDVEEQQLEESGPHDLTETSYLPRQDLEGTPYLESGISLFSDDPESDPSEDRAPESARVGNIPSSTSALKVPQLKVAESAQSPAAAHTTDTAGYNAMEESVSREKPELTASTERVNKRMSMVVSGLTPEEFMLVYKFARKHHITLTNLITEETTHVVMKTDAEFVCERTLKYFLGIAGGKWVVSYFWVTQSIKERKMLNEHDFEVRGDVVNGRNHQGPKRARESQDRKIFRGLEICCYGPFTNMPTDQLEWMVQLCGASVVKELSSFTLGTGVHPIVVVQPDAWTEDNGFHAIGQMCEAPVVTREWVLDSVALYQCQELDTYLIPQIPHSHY
T2 sequence (Q08499 whole entry): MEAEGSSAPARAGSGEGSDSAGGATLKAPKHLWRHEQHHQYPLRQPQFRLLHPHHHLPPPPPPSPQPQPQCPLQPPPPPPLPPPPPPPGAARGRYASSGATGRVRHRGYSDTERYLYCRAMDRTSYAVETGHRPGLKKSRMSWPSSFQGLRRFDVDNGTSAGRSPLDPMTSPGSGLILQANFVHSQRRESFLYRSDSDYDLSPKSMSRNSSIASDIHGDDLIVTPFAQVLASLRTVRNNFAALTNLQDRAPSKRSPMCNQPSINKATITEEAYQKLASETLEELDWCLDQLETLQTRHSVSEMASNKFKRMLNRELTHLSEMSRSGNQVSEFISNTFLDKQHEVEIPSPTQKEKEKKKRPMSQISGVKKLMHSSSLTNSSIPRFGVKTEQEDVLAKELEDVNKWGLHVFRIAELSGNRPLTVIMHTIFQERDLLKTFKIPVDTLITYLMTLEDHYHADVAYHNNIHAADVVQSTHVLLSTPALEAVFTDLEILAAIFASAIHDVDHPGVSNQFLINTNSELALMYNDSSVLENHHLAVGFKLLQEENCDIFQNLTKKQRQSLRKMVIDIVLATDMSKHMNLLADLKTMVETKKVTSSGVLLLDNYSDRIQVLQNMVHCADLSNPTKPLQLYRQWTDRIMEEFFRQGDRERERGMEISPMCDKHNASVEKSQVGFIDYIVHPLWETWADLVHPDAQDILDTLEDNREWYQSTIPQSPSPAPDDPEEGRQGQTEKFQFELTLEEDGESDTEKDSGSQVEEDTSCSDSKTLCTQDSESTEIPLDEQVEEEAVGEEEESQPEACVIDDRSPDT
T4 sequence (Q8WTS6 whole entry): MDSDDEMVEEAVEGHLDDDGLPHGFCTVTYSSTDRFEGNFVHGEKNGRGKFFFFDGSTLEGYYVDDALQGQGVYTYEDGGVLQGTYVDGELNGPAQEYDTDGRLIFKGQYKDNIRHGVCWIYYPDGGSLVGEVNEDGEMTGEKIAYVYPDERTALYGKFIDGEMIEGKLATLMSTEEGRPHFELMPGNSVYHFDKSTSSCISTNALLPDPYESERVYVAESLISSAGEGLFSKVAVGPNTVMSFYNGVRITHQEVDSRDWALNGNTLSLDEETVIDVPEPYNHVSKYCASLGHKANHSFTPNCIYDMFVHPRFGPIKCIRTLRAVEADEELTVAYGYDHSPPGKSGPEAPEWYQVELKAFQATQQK
T3 sequence (Q9NV35 whole entry): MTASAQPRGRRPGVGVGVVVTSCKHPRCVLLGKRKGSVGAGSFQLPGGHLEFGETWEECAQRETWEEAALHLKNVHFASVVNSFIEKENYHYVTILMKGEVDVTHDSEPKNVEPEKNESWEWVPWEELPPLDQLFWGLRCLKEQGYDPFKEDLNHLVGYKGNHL
Arginase-2, mitochondrial, sequence (P78540 whole entry): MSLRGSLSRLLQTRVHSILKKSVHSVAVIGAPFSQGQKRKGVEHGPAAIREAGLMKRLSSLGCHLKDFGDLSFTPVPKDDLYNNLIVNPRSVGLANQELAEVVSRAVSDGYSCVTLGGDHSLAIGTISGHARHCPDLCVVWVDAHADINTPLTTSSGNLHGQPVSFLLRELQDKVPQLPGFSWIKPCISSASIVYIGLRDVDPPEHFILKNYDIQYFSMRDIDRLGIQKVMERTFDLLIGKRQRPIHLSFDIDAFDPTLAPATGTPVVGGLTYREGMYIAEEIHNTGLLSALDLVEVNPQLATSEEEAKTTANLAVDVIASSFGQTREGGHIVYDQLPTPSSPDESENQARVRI
High affinity cAMP-specific and IBMX-insensitive 3',5'-cyclic phosphodiesterase 8A, sequence (O60658 whole entry): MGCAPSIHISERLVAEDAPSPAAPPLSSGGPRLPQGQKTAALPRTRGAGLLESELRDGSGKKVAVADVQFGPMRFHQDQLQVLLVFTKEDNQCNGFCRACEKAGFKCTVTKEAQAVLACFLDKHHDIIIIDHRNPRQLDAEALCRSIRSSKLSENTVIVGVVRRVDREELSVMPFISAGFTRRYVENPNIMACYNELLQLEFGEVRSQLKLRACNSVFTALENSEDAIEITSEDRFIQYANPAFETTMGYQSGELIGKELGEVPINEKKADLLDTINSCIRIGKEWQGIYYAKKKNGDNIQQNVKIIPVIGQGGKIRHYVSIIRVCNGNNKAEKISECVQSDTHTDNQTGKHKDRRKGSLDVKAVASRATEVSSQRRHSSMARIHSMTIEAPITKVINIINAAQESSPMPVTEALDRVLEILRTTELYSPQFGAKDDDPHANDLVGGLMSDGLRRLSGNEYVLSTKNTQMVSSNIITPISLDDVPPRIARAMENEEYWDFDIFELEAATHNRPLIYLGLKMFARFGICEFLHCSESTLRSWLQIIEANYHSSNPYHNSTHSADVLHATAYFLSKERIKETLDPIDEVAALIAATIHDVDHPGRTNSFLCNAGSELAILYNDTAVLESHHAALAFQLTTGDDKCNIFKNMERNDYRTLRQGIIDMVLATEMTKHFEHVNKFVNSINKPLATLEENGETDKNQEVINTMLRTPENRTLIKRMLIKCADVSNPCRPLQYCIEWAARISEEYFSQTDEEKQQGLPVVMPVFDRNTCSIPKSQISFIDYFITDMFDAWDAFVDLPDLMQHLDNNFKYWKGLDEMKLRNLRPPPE

SMILES: Cc1nnn(C)c1-c1cnc2c3cc4cnn(C)c4cc3n([C@H](c3ccccc3)C3CCOCC3)c2c1
- IC50 [1]: 2.7 nM

SMILES: COc1ccc(CC[C@H]2CCC[C@@H](CCc3ccc(OC)cc3)N2C[C@@H](O)CO)cc1
- Ki [2]: 29 nM

SMILES: Nc1ccc(-c2cccs2)cc1NC(=O)c1ccc(NC=O)cc1
- IC50 (Histone deacetylase 1): 40 nM
- IC50 (Histone deacetylase 2): 100 nM

SMILES: C#CCNC(=O)[C@H](CO)NC(=O)[C@H](CCCCN(CC)CC)NC(=O)[C@H](NC(=O)[C@@H](NC(=O)c1ccc(Oc2ccccc2)cc1)C1CCCC1)[C@@H](C)CC ({Benzoyl(4-OPh)}-[Gly(cPent)][d(aIle)][Lys(Et2)]S-{NH(propargyl)})
- Kd [3]: 800 nM
- Kd [4]: 700 nM
- Kd [5]: 500 nM

SMILES: C[C@H](Nc1nc2c(cnn2C2CCCC2)c(=O)[nH]1)c1ccc(Cl)cc1
- IC50 [6]: 2.4 nM
- IC50 [7]: 1.3 nM
- IC50 [8]: 2.5 nM
- IC50 [9]: 1 nM
- IC50 [10]: 2.3 nM

SMILES: O=C(c1ccc2[nH]ccc2c1)N1CCN(S(=O)(=O)c2ccc3[nH]c(=O)oc3c2)CC1
- IC50 [11]: 25 nM
- IC50 [12]: 57 nM

SMILES: Nc1ncnc2c1ncn2[C@@H]1O[C@H](C[C@@H](N)CC[C@H](N)C(=O)O)[C@@H](O)[C@H]1O [SINEFUNGIN]
- IC50 [13]: 2380 nM
- IC50 [14]: 9100 nM
- IC50 [15]: 310 nM
- IC50 [16]: 690 nM

SMILES: O=C(CNC(=O)[C@H](COP(=O)(O)O)NC(=O)CCc1c[nH]c2ccccc12)NCCCCc1ccccc1
- IC50 [17]: 310 nM
- Kd [18]: 300 nM

SMILES: CC(=O)N[C@@H](CCCCNC(=O)CSCCNC(=O)CCNC(=O)[C@H](O)C(C)(C)COP(=O)(O)OP(=O)(O)OC[C@H]1O[C@@H](n2cnc3c(N)ncnc32)[C@H](O)[C@@H]1OP(=O)(O)O)C(N)=O
- IC50 [19]: ~50 nM

SMILES: CCC1CCCCN1C(=O)n1ncc(C(O)(c2ccccc2)c2ccccc2)n1 (centres undefined)
- IC50 [20]: 15 nM

SMILES: N[C@@H](CCCCB(O)O)C(=O)O
- Ki [21]: 250 nM

SMILES: Nc1cc2c3c(c1)C(c1ccccc1)=N[C@@H](NC(=O)c1cccnc1)C(=O)N3CC2
- IC50 [22]: 290 nM
- IC50 [23]: 80 nM
- IC50 [24]: 560 nM
- IC50 [25]: 90 nM

SMILES: Cn1c(OC[C@H]2CC[C@H](C(F)(F)F)CC2)nn2c(C3CCOCC3)ncc2c1=O
- IC50 [26]: 97.6 nM

SMILES: O=C(N(CCc1ccccc1)C1CCCCC1)n1ncc(-c2ccc(OC(F)(F)F)cc2)n1
- IC50 [27]: 1.3 nM
